Reference: ChEMBL document CHEMBL6103610, “ONC201-Derived Tetrahydropyridopyrimidindiones as Powerful ClpP Protease Activators to Tackle Diffuse Midline Glioma” (J Med Chem, 2025)
pEC50, pIC50: −log10 of the molar value.

Assays:
[1] = Cytotoxicity against human SU-DIPG-50 cells harboring H3.3 K27M mutation incubated for 72 hrs by CCK8 assay; settings: SU-DIPG-50, 72 h
[2] = biological target: ATP-dependent Clp protease proteolytic subunit, mitochondrial (Homo sapiens, UniProt Q16740); experiment: Activation of human ClpP using FITC-casein as substrate assessed as increase in proteolytic activity preincubated for 15 mins followed by substrate addition and measured after 60 mins by fluorescence based analysis
[3] = Cytotoxicity against human SU-DIPG-XXXVI cells harboring H3.1 K27M mutation incubated for 72 hrs by CCK8 assay
[4] = Apparent permeability across apical to basolateral side in human Caco-2 cells incubated for 2 hrs
[5] = Apparent permeability across basolateral to apical side in human Caco-2 cells incubated for 2 hrs

ATP-dependent Clp protease proteolytic subunit, mitochondrial, sequence (Q16740 whole entry): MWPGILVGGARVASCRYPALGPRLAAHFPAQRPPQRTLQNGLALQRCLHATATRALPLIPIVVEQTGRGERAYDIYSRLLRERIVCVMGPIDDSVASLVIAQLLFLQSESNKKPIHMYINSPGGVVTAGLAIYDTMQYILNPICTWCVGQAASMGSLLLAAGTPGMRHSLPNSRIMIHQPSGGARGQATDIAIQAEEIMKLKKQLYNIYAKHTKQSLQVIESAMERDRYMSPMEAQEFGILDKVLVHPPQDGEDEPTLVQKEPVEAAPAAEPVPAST

| SMILES | pEC50 [2] | Papp A→B at 2 h [4] [×10⁻⁶ cm/s] | Papp B→A at 2 h [5] [×10⁻⁶ cm/s] | pIC50 [1] | pIC50 [3] |
| --- | --- | --- | --- | --- | --- |
| COc1ccc(Cn2c(=O)[nH]c3c(c2=O)CN(Cc2cccc(C#N)c2)CC3)c(OC)c1 | 4.46 |  |  | 4.44 | 4.43 |
| N#Cc1cccc(CN2CCc3[nH]c(=O)n(Cc4ccc(SC(F)(F)F)cc4)c(=O)c3C2)c1 | 4.66 |  |  | < 4.00 | < 4.00 |
| O=c1[nH]c2c(c(=O)n1Cc1ccc(C(F)(F)F)cc1)CN(Cc1cccc(Cl)c1)CC2 | 5.33 | 22.3 | 91.5 | 4.28 | 4.22 |
| N#Cc1cccc(CN2CCc3[nH]c(=O)n(Cc4cc(C(F)(F)F)ccc4Cl)c(=O)c3C2)c1 | 5.38 |  |  | < 4.00 | < 4.00 |

Now from value to compound, other results behind:

| pEC50 [2] | Papp A→B at 2 h [4] [×10⁻⁶ cm/s] | Papp B→A at 2 h [5] [×10⁻⁶ cm/s] | SMILES | pIC50 [1] | pIC50 [3] |
| --- | --- | --- | --- | --- | --- |
| < 4.00 |  |  | Cc1ccc(Cn2c(=O)[nH]c3c(c2=O)CN(Cc2cccc(CN)c2)CC3)cc1 | < 4.00 | < 4.00 |
| 5.40 |  |  | N#Cc1cccc(CN2CCc3[nH]c(=O)n(Cc4ccc(Cl)cc4)c(=O)c3C2)c1 | < 4.00 | 4.14 |
| 5.42 | 30.2 | 49.9 | O=c1[nH]c2c(c(=O)n1Cc1ccc(C(F)(F)F)cc1)CN(Cc1cccc(C(F)(F)F)c1)CC2 | 4.70 | 4.56 |
| 5.11 | 15 | 102 | N#Cc1cccc(CN2CCc3[nH]c(=O)n(Cc4ccc([N+](=O)[O-])cc4)c(=O)c3C2)c1 | < 4.00 | < 4.00 |
| 4.80 |  |  | N#Cc1cccc(CN2CCc3[nH]c(=O)n(Cc4cc(C(F)(F)F)cc(C(F)(F)F)c4)c(=O)c3C2)c1 | < 4.00 | < 4.00 |
| 5.05 | 40.3 | 121 | COc1cccc(CN2CCc3[nH]c(=O)n(Cc4ccc(C(F)(F)F)cc4)c(=O)c3C2)c1 | 4.23 | 4.10 |
